Reference: paper PMC11211886 (Frontiers in Pharmacology, 2024)
Read-outs that look alike come from different tables or passages of the source.

Experiments:
CYP2B6 [1] = conditions: male, human, 48 h
Experimental: (§1) […] […] […] Enzyme activity for each CYP isoform was reported as a fold change over vehicle control and the percent of positive control (detailed calculation in Supplementary 1.1). Hepatocytes were harvested with a lysis buffer from RNeasy 96 Kit (Qiagen Inc., Germantown, MD, USA) to isolate RNA, which was analyzed by real-time quantitative polymerase chain reaction (RT-PCR). […] Emax (the maximal observed induction) and EC50 (the concentration that supports half-maximal induction) were estimated by non-linear regression of fold increase in CYP mRNA expression versus concentration plots.
(§2) The fold of vehicle control and the percent of positive control were calculated with the formulas below:
(§3) Fold of vehicle control = CYPs activity of test compound (or positive control) treated sample / CYPs activity of vehicle control treated sample
(§4) % of positive control = [(fold change in treated sample)-1] / [(fold change in positive control)-1] × 100
(§5) Based on the enzyme activity, a minimum of 2-fold increase compared to vehicle control for the positive control and ≥40% of the positive control for the test article was considered as the cutoff for a positive signal in in vitro induction assay.

CYP1A2 = experiment: CYP induction in human hepatocytes, CYP1A2 enzyme activity
Experimental: as §1, §2, §3, §4, §5

MATE2-K = MATE2-K (Homo sapiens, UniProt Q86VL8); experiment: MATE2-K inhibition, tetraethylammonium uptake in transfected HEK293 cells; conditions: for Percentage transported / Uptake rate: MATE2-K
Experimental: The pre-incubation solutions were removed, and incubation solutions containing the inhibitors and probe substrates (or transport buffer containing an equal volume of vehicle control and probe substrates) were added and incubated at 37°C for 2 min (5 min for OATP1B3). The probe substrate for OAT1 was 4-aminohippuric acid (10 μM), for OAT3 was estrone 3-sulfate (10 μM), for OCT2 was metformin (100 μM), for OATP1B1 was β-estradiol 17-(β-D-glucuronide) (5 μM), for OATP1B3 was β-estradiol 17-(β-D-glucuronide) (10 μM), and for MATE1 and MATE2-K was tetraethylammonium (10 μM). After incubation, cells were washed three times with ice-cold transport buffer (25 mM HEPES, pH 7.4, pH 8.0 for overexpressing MATE1 and MATE2-K HEK293 cells) and lysed in distilled water. The concentrations of probe substrates were determined by LC-MS/MS, and a BCA Kit (Solarbio ®Life Sciences, Beijing, China) was used to determine the protein content in the cell lysate.
where C is the concentration of the drug in the cell lysate (nM), P is the protein concentration of the cell lysate (mg/mL), and T is the incubation time (minute). Uptake ratetest compound is the uptake rate of the substrate in the presence of the test compound. Uptake ratevehicle control is the uptake rate of the substrate in the presence of the vehicle control. Uptake ratepassive is the uptake rate of the substrate in the presence of the positive inhibitor at the top test concentration.

CYP2B6 [2] = target: T1, CYP2B6 (Homo sapiens, UniProt P20813); experiment: Time-dependent CYP inhibition in HLM, CYP2B6; assay type: in vitro ADME; conditions: 10 μM, 30 min pre-incubation with NADPH
T1 construct: tissue Life Technologies (Durham, NC, USA); host or cells: human liver microsomes
T1 sequence (P20813 1-491): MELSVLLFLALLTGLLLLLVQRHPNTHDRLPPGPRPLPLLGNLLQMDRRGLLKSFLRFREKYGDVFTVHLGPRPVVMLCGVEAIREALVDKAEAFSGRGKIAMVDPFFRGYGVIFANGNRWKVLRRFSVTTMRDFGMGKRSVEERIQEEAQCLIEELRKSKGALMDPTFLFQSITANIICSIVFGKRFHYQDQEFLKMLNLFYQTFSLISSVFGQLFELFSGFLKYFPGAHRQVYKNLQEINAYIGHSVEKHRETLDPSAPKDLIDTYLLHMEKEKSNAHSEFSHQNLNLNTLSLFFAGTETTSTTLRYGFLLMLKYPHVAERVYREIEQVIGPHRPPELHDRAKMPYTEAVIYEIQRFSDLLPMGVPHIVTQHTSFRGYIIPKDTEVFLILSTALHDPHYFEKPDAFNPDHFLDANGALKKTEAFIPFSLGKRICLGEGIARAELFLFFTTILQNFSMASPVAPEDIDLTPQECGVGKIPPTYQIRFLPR
Experimental: The procedure of time-dependent CYP inhibition was similar to that used for CYP reversible inhibition, as mentioned above, except that a pre-incubation step was added. […] Another appropriate volume of the NADPH-regenerating system and probe substrate were added to initiate the CYP isoform enzyme activity test step. For this step, the incubation period was 10 min, except for CYP2B6, CYP2C8, and CYP3A4/5 (probe substrate: midazolam), which was 3 min to make sure the reaction was under initial linear rates. After incubation for the designated time periods at 37°C, the ice-cold acetonitrile containing IS was added to quench the reaction. […] (Ainactivator/[…] represents the enzyme activity remaining due to the inhibition by the diluted inactivator in the enzyme activity test step, and (Ainactivator/[…] represents the remaining enzyme activity due to pre-incubation loss plus inhibition by the diluted inactivator in the enzyme activity test step.

Chain of MATE2-K (Q86VL8 1-566 isoform Q86VL8-3): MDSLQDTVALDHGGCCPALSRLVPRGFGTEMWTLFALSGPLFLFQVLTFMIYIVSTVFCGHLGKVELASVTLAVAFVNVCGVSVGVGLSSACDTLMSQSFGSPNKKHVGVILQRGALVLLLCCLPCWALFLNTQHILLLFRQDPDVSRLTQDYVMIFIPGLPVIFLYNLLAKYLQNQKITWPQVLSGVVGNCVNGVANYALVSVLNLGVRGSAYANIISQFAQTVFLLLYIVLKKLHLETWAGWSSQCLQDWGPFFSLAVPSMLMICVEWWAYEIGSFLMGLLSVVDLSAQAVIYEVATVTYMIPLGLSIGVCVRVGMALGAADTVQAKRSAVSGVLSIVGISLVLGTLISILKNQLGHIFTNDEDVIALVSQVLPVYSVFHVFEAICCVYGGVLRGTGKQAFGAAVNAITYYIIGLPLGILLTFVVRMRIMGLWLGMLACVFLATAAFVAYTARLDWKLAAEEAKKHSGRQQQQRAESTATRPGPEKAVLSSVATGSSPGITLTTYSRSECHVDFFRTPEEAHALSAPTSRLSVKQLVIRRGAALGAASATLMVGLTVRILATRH

C[C@H](Nc1ncnc(N)c1C#N)c1cc2ncc(Cl)n2nc1-c1ccccc1 [Amdizalisib]
Enzyme activity Percent of PC (%) (CYP2B6 [1]; 1 µM): 2.60%
Enzyme activity Percent of PC (%) (CYP2B6 [1]; 3 µM): 3.00%
Enzyme activity Percent of PC (%) (CYP2B6 [1]; 10 µM): 3.10%
Enzyme activity Percent of PC (%) (CYP2B6 [1]; 20 µM): -11.1%
Enzyme activity Percent of PC (%) (CYP2B6 [1]; 30 µM): -13.3%
Enzyme activity Percent of PC (%) (CYP1A2; CYP1A2, donor seven, 1 µM): 1.00%
Enzyme activity Percent of PC (%) (CYP1A2; CYP1A2, donor seven, 3 µM): -12.5%
Enzyme activity Percent of PC (%) (CYP1A2; CYP1A2, donor seven, 10 µM): 16.5%
Enzyme activity Percent of PC (%) (CYP1A2; CYP1A2, donor seven, 20 µM): 9.00%
Enzyme activity Percent of PC (%) (CYP1A2; CYP1A2, donor seven, 30 µM): 16.6%
Enzyme activity Percent of PC (%) (CYP1A2; CYP1A2, donor six, 1 µM): 2.40%
Enzyme activity Percent of PC (%) (CYP1A2; CYP1A2, donor six, 3 µM): 3.90%
Enzyme activity Percent of PC (%) (CYP1A2; CYP1A2, donor six, 10 µM): 7.60%
Enzyme activity Percent of PC (%) (CYP1A2; CYP1A2, donor six, 20 µM): 14.9%
Enzyme activity Percent of PC (%) (CYP1A2; CYP1A2, donor six, 30 µM): 7.30%
Enzyme activity Percent of PC (%) (CYP1A2; CYP1A2, donor two, 1 µM): 1.50%
Enzyme activity Percent of PC (%) (CYP1A2; CYP1A2, donor two, 3 µM): 0.30%
Enzyme activity Percent of PC (%) (CYP1A2; CYP1A2, donor two, 10 µM): 7.30%
Enzyme activity Percent of PC (%) (CYP1A2; CYP1A2, donor two, 20 µM): 8.90%
Enzyme activity Percent of PC (%) (CYP1A2; CYP1A2, donor two, 30 µM): 14.6%
induction of CYP1A2 enzyme activity (CYP1A2; up to 30.0 µM, all three donors): not considered an inducer
IC50 (MATE2-K): 38.2 µM
calculated R value (MATE2-K) (MATE2-K): < 1.1
Percentage transported (MATE2-K; compound 0.3 μM): 87.1%
Uptake rate (MATE2-K; compound 0.3 μM): 125±3.49 pmol/mg protein/min
Percentage transported (MATE2-K; compound 1 μM): 89.9%
Uptake rate (MATE2-K; compound 1 μM): 129±7.96 pmol/mg protein/min
Percentage transported (MATE2-K; compound 3 μM): 89.0%
Uptake rate (MATE2-K; compound 3 μM): 127±5.50 pmol/mg protein/min
Percentage transported (MATE2-K; compound 10 μM): 89.6%
Uptake rate (MATE2-K; compound 10 μM): 128±4.89 pmol/mg protein/min
Percentage transported (MATE2-K; compound 30 μM): 49.3%
Uptake rate (MATE2-K; compound 30 μM): 73.9±6.49 pmol/mg protein/min
Percentage transported (MATE2-K; compound 100 μM): 29.6%
Uptake rate (MATE2-K; compound 100 μM): 47.4±3.61 pmol/mg protein/min
inhibition at 2 min, 0.3 µM (MATE2-K; human, pH 8): 12.9%
inhibition at 2 min, 1 µM (MATE2-K; human, pH 8): 10.1%
inhibition at 2 min, 3 µM (MATE2-K; human, pH 8): 11%
inhibition at 2 min, 10 µM (MATE2-K; human, pH 8): 10.4%
inhibition at 2 min, 30 µM (MATE2-K; human, pH 8): 50.7%
inhibition at 2 min, 100 µM (MATE2-K; human, pH 8): 70.4%
activity loss of CYP2B6 (CYP2B6 [2]): less than 10%
